Experimental data taken from ChEMBL document CHEMBL1201862, “PubChem BioAssay data set” (2004).
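Each compound was tested at five concentrations against cells in 96-well plates for 48 hours. At the GI50, growth is halved.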 Calls of active or inactive are those of the source. Rule as the data show it: active = GI50 up to about 1.1 µM and inactive = higher.

Tests used:
Experiment in all cases: DTP human tumour cell line panel, 48 h
U-251 = tested on: U-251
HOP-62 = tested on: HOP-62
MOLT-4 = tested on: MOLT-4
SF-268 = tested on: SF-268
SR = tested on: SR
CAKI-1 = tested on: CAKI-1
SW-620 = tested on: SW-620
HCT-116 = tested on: HCT-116
NCI-H460 = tested on: NCI-H460
OVCAR-4 = tested on: OVCAR-4
IGROV-1 = tested on: IGROV-1
NCI-H226 = tested on: NCI-H226
COLO 205 = tested on: COLO 205
786-0 = tested on: 786-0
UACC-257 = tested on: UACC-257
OVCAR-8 = tested on: OVCAR-8
SNB-19 = tested on: SNB-19

| SMILES | GI50 (U-251) | GI50 (HOP-62) | GI50 (MOLT-4) | GI50 (SF-268) | GI50 (SR) | GI50 (CAKI-1) | GI50 (SW-620) | GI50 (HCT-116) | GI50 (NCI-H460) | GI50 (OVCAR-4) | GI50 (IGROV-1) | GI50 (NCI-H226) | GI50 (COLO 205) | GI50 (786-0) | GI50 (UACC-257) | GI50 (OVCAR-8) | GI50 (SNB-19) |
| --- | --- | --- | --- | --- | --- | --- | --- | --- | --- | --- | --- | --- | --- | --- | --- | --- | --- |
| Cc1nc2ccccc2c(=O)n1NC(=S)Nc1ccccc1 | > 100 µM (inactive) | > 100 µM (inactive) | > 100 µM (inactive) | > 100 µM (inactive) | > 100 µM (inactive) | > 100 µM (inactive) | > 100 µM (inactive) | > 100 µM (inactive) | > 100 µM (inactive) | 91.2 µM (inactive) | > 100 µM (inactive) | 37.7 µM (inactive) | > 100 µM (inactive) | > 100 µM (inactive) | > 100 µM (inactive) | > 100 µM (inactive) |  |
| N#CC(C(=O)/C(=N/N)C(C#N)c1ccc(Cl)cc1)c1ccc(Cl)cc1 (stereo not drawn) | > 100 µM (inactive) | > 100 µM (inactive) | > 100 µM (inactive) | > 100 µM (inactive) |  |  | > 100 µM (inactive) | > 100 µM (inactive) | > 100 µM (inactive) | > 100 µM (inactive) | > 100 µM (inactive) | > 100 µM (inactive) | > 100 µM (inactive) | > 100 µM (inactive) | > 100 µM (inactive) | > 100 µM (inactive) | > 100 µM (inactive) |
| CCc1cc(CCC(=O)Nc2ccccc2[N+](=O)[O-])nc(S)n1 | > 100 µM (inactive) | > 100 µM (inactive) | > 100 µM (inactive) | > 100 µM (inactive) | > 100 µM (inactive) |  | > 100 µM (inactive) | > 100 µM (inactive) | > 100 µM (inactive) |  | > 100 µM (inactive) | > 100 µM (inactive) | > 100 µM (inactive) | > 100 µM (inactive) | > 100 µM (inactive) | > 100 µM (inactive) | > 100 µM (inactive) |
| Clc1ccccc1C1SCc2nc3ccccc3n21 (stereo not drawn) | 22.8 µM (inactive) | 19.3 µM (inactive) | 23.6 µM (inactive) | 37.1 µM (inactive) | 19.4 µM (inactive) | 25.4 µM (inactive) | 43.5 µM (inactive) | 18.7 µM (inactive) | 30.1 µM (inactive) | 18 µM (inactive) | 33.6 µM (inactive) | 26.2 µM (inactive) | 49.7 µM (inactive) | 25.7 µM (inactive) |  | 24.2 µM (inactive) | 12.4 µM (inactive) |
| C=C(COC(C)=O)CC(/C=C(\C)CCC=C(C)C)OC(C)=O (stereo not drawn) | > 100 µM (inactive) | > 100 µM (inactive) | 48.4 µM (inactive) | > 100 µM (inactive) |  |  | > 100 µM (inactive) | > 100 µM (inactive) | > 100 µM (inactive) | > 100 µM (inactive) | > 100 µM (inactive) | > 100 µM (inactive) | > 100 µM (inactive) | > 100 µM (inactive) |  | > 100 µM (inactive) | > 100 µM (inactive) |
| CC(C)=CC(=O)C1c2cccc(O)c2C(=O)c2c(O)cc(C)cc21 (stereo not drawn) | 1.73 µM (inactive) | 2.86 µM (inactive) | 4.23 µM (inactive) | 2.12 µM (inactive) |  | 5.25 µM (inactive) | 3.33 µM (inactive) | 2.14 µM (inactive) | 2.32 µM (inactive) | 2.13 µM (inactive) | 2.09 µM (inactive) | 2.24 µM (inactive) | 1.79 µM (inactive) | 5.06 µM (inactive) | 2.88 µM (inactive) | 2.81 µM (inactive) | 2.12 µM (inactive) |
| CCOC(=N)CC(=O)c1ccccc1 | > 100 µM (inactive) | > 100 µM (inactive) | > 100 µM (inactive) | > 100 µM (inactive) | > 100 µM (inactive) | > 100 µM (inactive) | > 100 µM (inactive) | > 100 µM (inactive) |  | > 100 µM (inactive) | > 100 µM (inactive) | > 100 µM (inactive) | > 100 µM (inactive) | > 100 µM (inactive) | > 100 µM (inactive) | > 100 µM (inactive) | > 100 µM (inactive) |
| COC1OC(COCc2ccc(Cl)cc2)C(OCc2ccc(Cl)cc2)C1O (stereo not drawn) | 15.6 µM (inactive) | 17.5 µM (inactive) | 20.2 µM (inactive) | 17.1 µM (inactive) |  | 18 µM (inactive) | 15.4 µM (inactive) |  | 17.4 µM (inactive) | 20.6 µM (inactive) | 22.8 µM (inactive) |  | 19 µM (inactive) | 15 µM (inactive) | 16.3 µM (inactive) | 26.2 µM (inactive) | 18 µM (inactive) |
| CCCCCCC(C)OC(=O)/C=C(\CC(=O)OC(C)CCCCCC)C(=O)OC(C)CCCCCC (stereo not drawn) | > 100 µM (inactive) | > 100 µM (inactive) | > 100 µM (inactive) | > 100 µM (inactive) |  | > 100 µM (inactive) | > 100 µM (inactive) | > 100 µM (inactive) | > 100 µM (inactive) | > 100 µM (inactive) | > 100 µM (inactive) | > 100 µM (inactive) | > 100 µM (inactive) | > 100 µM (inactive) | > 100 µM (inactive) | > 100 µM (inactive) |  |
| O=C(CCn1[nH]c(=O)c(Cl)c(Cl)c1=O)NO | > 100 µM (inactive) | > 100 µM (inactive) | > 100 µM (inactive) | > 100 µM (inactive) |  | > 100 µM (inactive) | > 100 µM (inactive) |  | > 100 µM (inactive) | > 100 µM (inactive) | > 100 µM (inactive) | > 100 µM (inactive) | > 100 µM (inactive) | > 100 µM (inactive) | > 100 µM (inactive) | > 100 µM (inactive) | > 100 µM (inactive) |
| C=C(CS(=O)(=O)c1ccccc1)[P+](c1ccccc1)(c1ccccc1)c1ccccc1 | > 10 µM (inactive) | 28.1 µM (inactive) | 16.6 µM (inactive) | 2.72 µM (inactive) |  | 23.4 µM (inactive) | 18.2 µM (inactive) | 12.7 µM (inactive) | 22.1 µM (inactive) | 37.9 µM (inactive) | 25.7 µM (inactive) | 16.4 µM (inactive) |  | 19.9 µM (inactive) | 8.93 µM (inactive) | 14.8 µM (inactive) | 28.4 µM (inactive) |
| COc1cc([C@@H]2c3cc4c(cc3[C@@H](NC(=O)c3ccc(N)cc3)C3COC(=O)[C@@H]32)OCO4)cc(OC)c1O (stereo partly drawn) | 0.362 µM (active) | 0.535 µM (active) | 0.0375 µM (active) | 2.41 µM (inactive) |  | 5.4 µM (inactive) | 1.03 µM (active) | 2.47 µM (inactive) | < 0.01 µM (active) | 93.8 µM (inactive) | 1.42 µM (inactive) | 0.881 µM (active) | 10.8 µM (inactive) | 1.36 µM (inactive) | 9.16 µM (inactive) | 2.53 µM (inactive) | 1.34 µM (inactive) |
| COC12OCCN(CCO)C1=CC(=O)C1(C)N=NC(C)C12 (stereo not drawn) | > 100 µM (inactive) |  | > 100 µM (inactive) |  |  | > 100 µM (inactive) | > 100 µM (inactive) | > 100 µM (inactive) | > 100 µM (inactive) |  | > 100 µM (inactive) | > 100 µM (inactive) | > 100 µM (inactive) | > 100 µM (inactive) | > 100 µM (inactive) | > 100 µM (inactive) |  |
| CSCC1CC(c2ccc(Cl)cc2)=NO1 (stereo not drawn) | > 100 µM (inactive) | > 100 µM (inactive) | > 100 µM (inactive) | > 100 µM (inactive) | > 100 µM (inactive) | > 100 µM (inactive) | > 100 µM (inactive) | > 100 µM (inactive) | > 100 µM (inactive) | > 100 µM (inactive) | > 100 µM (inactive) | > 100 µM (inactive) | > 100 µM (inactive) | > 100 µM (inactive) | > 100 µM (inactive) | > 100 µM (inactive) |  |
| OC/C=C(\I)CCCOCOCc1ccccc1 | 23.4 µM (inactive) | 42.5 µM (inactive) | 3.1 µM (inactive) | 27.7 µM (inactive) |  |  | 44 µM (inactive) | 28.1 µM (inactive) | 40.7 µM (inactive) | 24.5 µM (inactive) | 98.2 µM (inactive) | 27.4 µM (inactive) | 67.1 µM (inactive) | 28.8 µM (inactive) |  | 41.4 µM (inactive) | 52.8 µM (inactive) |
| CCCCCCCCCCCCC(Br)C(=O)NCC(N)=O (stereo not drawn) | 11.6 µM (inactive) | 15 µM (inactive) |  | 3.42 µM (inactive) |  |  | 16 µM (inactive) | 1.83 µM (inactive) | 16 µM (inactive) | 3.55 µM (inactive) | 9.66 µM (inactive) | 1.67 µM (inactive) | 21.2 µM (inactive) | 6.85 µM (inactive) | 11.4 µM (inactive) | 4.79 µM (inactive) | 11.2 µM (inactive) |
| O=C(CC(=O)C(F)(F)F)c1csc2ccccc12 | 34.7 µM (inactive) | 22.5 µM (inactive) | 17.8 µM (inactive) | 30.8 µM (inactive) | 17.5 µM (inactive) |  | 38.5 µM (inactive) | 34 µM (inactive) | 19.1 µM (inactive) |  | 23.7 µM (inactive) |  | 38.5 µM (inactive) | 36.7 µM (inactive) | 32.9 µM (inactive) | 18.5 µM (inactive) | 37.2 µM (inactive) |
| O=c1oc2c3ccc4ccccc4c3n(CCN3CCOCC3)c2c2ccccc12 |  | 26.4 µM (inactive) | 1.69 µM (inactive) | 19.7 µM (inactive) | 1.15 µM (inactive) | 6.78 µM (inactive) | 5.73 µM (inactive) | > 100 µM (inactive) | 0.755 µM (active) | > 100 µM (inactive) | > 100 µM (inactive) |  | > 100 µM (inactive) | 6.44 µM (inactive) | > 100 µM (inactive) | > 100 µM (inactive) | > 100 µM (inactive) |
